# Reference: US8178659B2, “Targets for the identification of antibiotics that are not susceptible to antibiotic resistance” (priority 2005, dated 2012)
# Tested on: E. coli DH5 cells
# Assay: Minimum inhibitory concentration (MIC) of chloramphenicol in the specialized ribosome (CAT reporter) system
# Type: cell-based
# Settings: Escherichia coli, DH5CELLS
# Description: To examine the role of potential interactions within the 530 loop (FIG. 3.1) nucleotides involved in the proposed interactions were randomly mutated using PCR and cloned into pRNA16ST, a derivative of pRNA122 (Lee et al., 1996; Lee et al., 1997). pRNA 16ST contains only the 16 S rRNA from the rrnB operon rather then the entire operon. […] In this specialized in vivo system, the chloramphenicol acetyltransferase (CAT) reporter message is translated exclusively by plasmid-derived ribosomes that cannot translate normal cellular messages (Lee et al., 1996; Lee et al., 1997). Thus, the minimal inhibitory concentration (MIC) of chloramphenicol for each mutant is correlated to the level of function of the plasmid-derived ribosomes. This allows for the selection of functional mutants on chloramphenicol containing media. Survivors were then sequenced and assayed for function by determining the MIC for each mutant.
# Minimum inhibitory concentration (MIC). MICs were determined by standard methods in microtiter plates. Overnight cultures grown in LB-Ap100 were diluted and induced in the same medium containing 1 mM IPTG for two to three hours at 37° C. Approximately 10^4 induced cells were then added to wells containing LB-Ap100+IPTG (1 mM) and chloramphenicol at increasing concentrations.
smiles,measurement,setting,value
O=C(N[C@H](CO)[C@H](O)c1ccc([N+](=O)[O-])cc1)C(Cl)Cl [chloramphenicol],MIC,cells expressing wild-type ribosomes in the system (pRNA123),700 µg/mL
same,MIC,uninduced wild-type plasmid (pRNA228) as well as a lethal clone,15 µg/mL
